Experimental findings from patent US20140296146A1, “Thermostable Inhibitors of Activation of the Blood Clotting System Through Contact with Foreign Surfaces” (Synapse B.V., priority 2011, published 2014) are described below.

A short description of assay [1]: TICA1 Ala-scan with intact disulfides, activity vs TICA1. The settings on record: single amino acid substituted by alanine. An excerpt:
Every single amino acid was substituted by alanine except for cysteine. […] See also FIG. 6.

A short description of assay [2]: TICA1: dependence of activity on disulfides (FIG. 5). The settings on record: relative to TICA1 with 3 disulfides = 100%. An excerpt: FIG. 5: Thermostable Inhibitor of Coagulation Activation (TICA1): Dependence on Disulfides.
A further assay has as its system contact activation. Description: CAT assay at 0 pM TF on PPP from blood collection tubes with TICA added to tube or to assay. In kind it is biochemical, human. Here is the method: In 12 donors blood was drawn with 7 different drawing tubes with and without addition of TICA1 in the drawing tubes (total 14 tubes; 78 ml). After preparing PPP from these tubes, CAT measurements with MP reagent and pplow reagent was performed. One donor is measured in one plate. (pplow duplicate; MP duplicate; calibrator in 4 fold. Total volume is 320 μl sample/measurement in total 88 wells/donor.
In 12 donors blood is taken with the following commercial available drawing tubes: (From all blooddrawing tubes one tube with and one tube without TICA will be used to draw blood)
Final TICA concentration after blood drawing in every tube with added TICA is 30 μg/ml whole blood.
Final TICA concentration in plasma after preparing PPP is 60 μg/ml (assuming an hematocit of 50%)
CAT measurements with MP reagent and pplow reagent will be performed. One donor is measured in one plate. PPLow duplicate; MP duplicate; calibrator in 4 fold.
Total volume is 320 μl sample/measurement in total 88 wells/donor. NP2012 is also included in the measurement in 4 fold.
Lag times, Endogenous thrombin potentials, and peak height were recorded, For the current conditions of thrombin generation, peak height is the preferred parameter for interpretation of the results.
Plasma with TICA added: concentration in plasma: 60 μg/ml
Stock TICA: 1.5 mg/ml=>1500 μg/ml
20 μl TICA (stock: 1500 μg/ml) is added to 480 μl plasma.

The target in assay [3] is T1, h-FXIIa (human, UniProt P00748 20-615).
T1 construct: also called factor XIIa
T1 sequence (looked up): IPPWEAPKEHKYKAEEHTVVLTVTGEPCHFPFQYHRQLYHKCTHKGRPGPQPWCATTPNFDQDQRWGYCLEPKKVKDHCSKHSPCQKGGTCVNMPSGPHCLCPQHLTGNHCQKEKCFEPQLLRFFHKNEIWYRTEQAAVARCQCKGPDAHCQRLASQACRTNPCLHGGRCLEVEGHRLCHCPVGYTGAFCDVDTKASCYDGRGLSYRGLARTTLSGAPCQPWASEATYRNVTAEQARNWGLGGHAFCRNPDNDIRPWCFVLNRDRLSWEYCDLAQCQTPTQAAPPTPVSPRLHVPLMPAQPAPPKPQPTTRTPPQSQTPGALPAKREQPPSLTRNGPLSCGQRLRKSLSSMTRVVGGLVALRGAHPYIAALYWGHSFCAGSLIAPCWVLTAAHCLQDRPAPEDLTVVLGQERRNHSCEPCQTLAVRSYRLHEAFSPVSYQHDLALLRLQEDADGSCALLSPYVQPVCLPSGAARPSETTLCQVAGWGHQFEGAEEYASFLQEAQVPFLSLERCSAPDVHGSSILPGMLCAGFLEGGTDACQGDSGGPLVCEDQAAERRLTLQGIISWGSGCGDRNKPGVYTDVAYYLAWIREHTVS
Description: S2302 hydrolysis by h-FXIIa (5.01 nM); inhibitor kept at -80° C. (reference). Here is the method: (§1) Stock FXIIa was diluted 700× in BSA5. The inhibitor was diluted in BSA5 as indicated. Wells contained 70 μl diluted FXIIa (5 nM final), 70 μl inhibitor and 20 μl S2302 (475 or 462.5 μM final). The reaction was started after 5 min heating on the heating plate with S2302. Filters 405 nm and 490 nm reference. Found ΔmA/min was multiplied by 2.14 to get the figure for a 1 cm path.

Assay [4] concerns the target T1, h-FXIIa. Description: S2302 hydrolysis by h-FXIIa (5.01 nM); inhibitor at RT during 72 hrs, against -80° C. Here is the method:
as §1

Where [5] appears, read: TICA added to CAT assay, 60 μg/ml in plasma.
Where [6] appears, read: TICA added to Tube, 30 μg/ml whole blood.

Regarding `CC[C@H](C)[C@@H]1NC(=O)[C@H](CCCNC(=N)N)NC(=O)[C@@H]2CCCN2C(=O)[C@@H](NC(=O)[C@@H](NC(=O)[C@@H](N)CCCNC(=N)N)C(C)C)CSSC[C@@H]2NC(=O)[C@H](CCC(=O)O)NC(=O)[C@H](C)NC(=O)[C@H](CC(C)C)NC(=O)[C@@H]3CSSC[C@@H](C(=O)NCC(=O)O)NC(=O)[C@H](Cc4ccc(O)cc4)NC(=O)CNC(=O)[C@H](Cc4c[nH]cn4)NC(=O)[C@H](CCC(=O)O)NC(=O)[C@H](CC(C)C)NC(=O)[C@H](CSSC[C@H](NC(=O)[C@H](CCCCN)NC(=O)[C@H](CCSC)NC(=O)[C@H](CC(C)C)NC1=O)C(=O)N[C@@H](CCCCN)C(=O)N[C@@H](CCCCN)C(=O)N[C@@H](CC(=O)O)C(=O)N[C@@H](CO)C(=O)N[C@@H](CC(=O)O)C(=O)N3)NC(=O)[C@H](C(C)C)NC2=O` [TICA1], the “Activity vs TICA1” value in assay [1] was determined as 100%. Also, the activity in assay [2] stood at 100%. In the assay on contact activation (setting [5]), the “BD Glass 0 pM TF ETP (nM IIa · min)” value is recorded as 760 ± 526 nM IIa · min, the “BD Glass 0 pM TF Lagtime (min)” value was determined as 38.8 ± 34.8 min, the “BD Glass 0 pM TF Peak Height (nM IIa)” value was found to be 105 ± 81 nM IIa and the “BD Plastic 0 pM TF ETP (nM IIa · min)” value is given as 614 ± 538 nM IIa · min. Further, in the assay with contact activation (setting [5]), the “BD Plastic 0 pM TF Lagtime (min)” value was 49.5 ± 37.7 min, the “BD Plastic 0 pM TF Peak Height (nM IIa)” value is reported as 86 ± 87 nM IIa, the “Greiner 0 pM TF ETP (nM IIa · min)” value was 834 ± 449 nM IIa · min and the “Greiner 0 pM TF Lagtime (min)” value stood at 31.2 ± 26.7 min. Further, in the assay on contact activation (setting [5]), the “Greiner 0 pM TF Peak Height (nM IIa)” value is on record as 110 ± 70 nM IIa, the “Heamtech 0 pM TF ETP (nM IIa · min)” value stood at 666 ± 552 nM IIa · min, the “Heamtech 0 pM TF Lagtime (min)” value is given as 46.4 ± 39.7 min and the “Heamtech 0 pM TF Peak Height (nM IIa)” value was found to be 93 ± 85 nM IIa. Moreover, in the assay on contact activation (setting [5]), the “Sarstedt 0 pM TF ETP (nM IIa · min)” value worked out at 279 ± 227 nM IIa · min, the “Sarstedt 0 pM TF Lagtime (min)” value was found to be 50.0 ± 38.0 min, the “Sarstedt 0 pM TF Peak Height (nM IIa)” value is 26 ± 23 nM IIa and the “Terumo 0 pM TF ETP (nM IIa · min)” value was 276 ± 367 nM IIa · min. In the assay with contact activation (setting [5]), the “Terumo 0 pM TF Lagtime (min)” value is 64 ± 40.6 min and the “Terumo 0 pM TF Peak Height (nM IIa)” value is 33 ± 50 nM IIa. In the assay on contact activation (setting [6]), the “BD Glass 0 pM TF ETP (nM IIa · min)” value was 77 ± 119 nM IIa · min, the “BD Glass 0 pM TF Lagtime (min)” value came to 76.6 ± 34.0 min, the “BD Glass 0 pM TF Peak Height (nM IIa)” value came to 6 ± 9 nM IIa and the “BD Plastic 0 pM TF ETP (nM IIa · min)” value stood at 20 ± 61 nM IIa · min. For the same molecule, in the assay on contact activation (setting [6]), the “BD Plastic 0 pM TF Lagtime (min)” value is listed as 90.1 ± 26.8 min, the “BD Plastic 0 pM TF Peak Height (nM IIa)” value was found to be 2 ± 6 nM IIa, the “Greiner 0 pM TF ETP (nM IIa · min)” value was 144 ± 164 nM IIa · min and the “Greiner 0 pM TF Lagtime (min)” value came out at 65.0 ± 34.8 min. For the same molecule, in the assay on contact activation (setting [6]), the “Greiner 0 pM TF Peak Height (nM IIa)” value came out at 11 ± 13 nM IIa, the “Heamtech 0 pM TF ETP (nM IIa · min)” value is 289 ± 420 nM IIa · min, the “Heamtech 0 pM TF Lagtime (min)” value is 65.0 ± 34.8 min and the “Heamtech 0 pM TF Peak Height (nM IIa)” value is on record as 36 ± 62 nM IIa. Moreover, in the assay on contact activation (setting [6]), the “Sarstedt 0 pM TF ETP (nM IIa · min)” value was 140 ± 106 nM IIa · min, the “Sarstedt 0 pM TF Lagtime (min)” value amounted to 52.5 ± 36.2 min, the “Sarstedt 0 pM TF Peak Height (nM IIa)” value is listed as 10 ± 8 nM IIa and the “Terumo 0 pM TF ETP (nM IIa · min)” value amounted to 59 ± 119 nM IIa · min. Further, in the assay with contact activation (setting [6]), the “Terumo 0 pM TF Lagtime (min)” value is 75.7 ± 35.6 min and the “Terumo 0 pM TF Peak Height (nM IIa)” value is listed as 5 ± 11 nM IIa.

B1: Corn trypsin inhibitor (other, UniProt P01088 29-138, looked up)
chain: SAGTSCVPGWAIPHNPLPSCRWYVTSRTCGIGPRLPWPELKRRCCRELADIPAYCRCTALSILMDGAIPPGPDAQLEGRLEDLPGCPREVQRGFAATLVTEAECNLATIS
notes: also called CTI
With B1, the “Res. Act. (%)” value stood at 100% with h-FXIIa [3] and 86% with h-FXIIa [4].
